Assay results: patent publication US6506734B1, “20(S) camptothecin glycoconjugates” (Bayer Aktiengesellschaft, priority 1997, dated 2003)
Where “and” joins values, the source holds several entries; their conditions need not be identical. Identical values can stand only once. Counter-ions that a name gives are not always drawn. Like-named read-outs stand apart in the source and are kept apart here.

How the values were obtained:
HT 29 = experiment: Growth inhibition test (MTT) for cytotoxic properties, HT 29; details: read-out: IC50/nM HT 29
Experimental: (§1) The human large intestine cell lines SW 480 and HT 29 (ATCC No. CCL 228 and HBT 38) and the mouse melanoma cell line B16F10 (CRL 6475) were grown in Roux dishes in RPMI 1640 medium with addition of 10% FCS. They were then trypsinized and taken up in RPMI plus 10% FCS to a cell count of 50,000 cells/ml for SW 480 and HT 29 and 20,000 cells for B16F10. 100 μl of cell suspension/well were added to a 96 microwell plate and incubated for 1 day at 37° C. in a CO2 incubator. A further 100 μl of RPMI medium and 1 μl of DMSO containing the test substances were then added. The growth was checked after day 6. To do this, 25 μl of MTT solution (3-(4,5-dimethylthiazol-2-yl)-2,5-diphenyltetrazolium bromide) having a starting concentration of 5 mg/ml of H2O were added to each microwell. Incubation was carried out for 5 hours in a CO2 incubator at 37° C. The medium was then aspirated and 100 μl of i-propanol/well were added. After shaking for 30 min with 100 μl of H2O, the extinction was measured at 595 nm using a multiplate reader (Bio.) 3550 UV.

SW 480 = experiment: Growth inhibition test (MTT) for cytotoxic properties, SW 480; details: read-out: IC50/nM SW 480
Experimental: as §1

B16F10 = experiment: Growth inhibition test (MTT) for cytotoxic properties, B16F10; details: read-out: IC50/nM B16F10
Experimental: as §1

[1] = system: mouse bone marrow stem cells; experiment: Inhibition of the CSF-induced proliferation of mouse bone marrow stem cells; details: recombinant murine GM-CSF, 7 days, colony count
Experimental: Bone marrow cells were washed out of mice femurs. 10^5 cells were incubated at 37° C. and 7% CO2 in McCoy 5A medium (0.3% agar) together with recombinant murine GM-CSF (Genzyme; stem cell colony formation) and the substances (10^−4 to 100 μg/ml). 7 days later, the colonies (<50 cells) and clusters (17-50 cells) were counted.

[2] = system: large-cell human lung tumour xenograft LXFL 529; experiment: In vivo inhibition of tumour growth in the nude mouse model; details: for Survival time: LXFL 529 nude mice, individual animals; for therapeutic efficacy (tumour remission): maximum tolerable dose (MTD) and ½ MTD, LXFL 529
Experimental: For all in vivo experiments for investigation of the inhibition of tumour growth, athymic nude mice (NMRI nu/nu strain) were used. The selected large-cell lung carcinoma LXFL 529 was grown by serial passage in nude mice. The human origin of the tumour was confirmed by isoenzymatic and immunohistochemical methods.
The tumour was implanted subcutaneously into both flanks of small nu/nu nude mice 6 to 8 weeks old. […] The mice were assigned to the treatment group and the control group (5 mice per group with 8-10 assessable tumours) by randomization.
The size of the tumours was measured in two dimensions by means of a slide gauge. The tumour volume, which correlated well with the cell count, was then used for all evaluations. The volume was calculated according to the formula “length×breadth×breadth/2” ([a×b^2]/2, a and b represent two diameters at right angles).
The values of the relative tumour volume (RTV) were calculated for each individual tumour by dividing the tumour size on day X with the tumour size on day 0 (at the time of randomization). The mean values of the RTV were then used for the further evaluation.
The inhibition of the tumour volume (relative tumour volume of the test group/control group×100, T/C in %) was the final measured value.
The administration of the compounds was carried out intravenously (i.v.), for example on day 0, 1 and 2 after randomization, the total dose per day being split over 2 administrations.

[3] = HT 29 cells, MTT, growth checked after day 6
[4] = SW 480 cells, MTT, growth checked after day 6
[5] = B16F10 cells, MTT, growth checked after day 6
[6] = 16 mg/kg/day i.v., LXFL 529, optimum on day 28

SMILES	IC50 (HT 29; Homo sapiens, HT-29, 144 h) [nM]	IC50 (SW 480; Homo sapiens, SW480, 144 h) [nM]	IC50 (B16F10; Mus musculus, B16-F10, 144 h) [nM]	also measured
CC[C@@]1(OC(=O)[C@@H](CC(C)C)NC(=O)[C@H](CCCCN)NC(=S)Nc2ccc(OC3O[C@@H](C)[C@@H](O)[C@@H](OC)[C@@H]3O)cc2)C(=O)OCc2c1cc1n(c2=O)Cc2cc3ccccc3nc2-1 (stereo partly drawn) [Example 6, 20(S)-20-O-{N^α-[O-(3-O-Methyl-β-L-fuopyranosyl)-4-hydroxy-phenylamino-thiocarbonyl]-L-lysyl-D-leucyl}-camptothecin, hydrochloride]	30	60	300	
CC[C@@]1(OC(=O)[C@@H](CC(C)C)NC(=O)[C@@H](CCCCN)NC(=S)Nc2ccc(OC3O[C@@H](C)[C@@H](O)[C@@H](OC)[C@@H]3O)cc2)C(=O)OCc2c1cc1n(c2=O)Cc2cc3ccccc3nc2-1 (stereo partly drawn) [Example 3, 20(S)-20-O-{N^α-[O-(3-O-Methyl-β-L-fucopyranosyl)-4-hydroxy-phenylamino-thiocarbonyl]-D-lysyl-D-leucyl}-camptothecin, hydrochloride]	20	100	500	
CC[C@@]1(O)C(=O)OCc2c1cc1n(c2=O)Cc2cc3ccccc3nc2-1 [20(S)-Camptothecin, reference compound]				IC50 (HT 29; [3]): 5 nM; IC50 (SW 480; [4]): 10 nM; IC50 (B16F10; [5]): 20 nM; Inhibition of the CSF-induced proliferation of mouse bone marrow stem cells IC50 [1]: 0.05 ng/mL
CC[C@@]1(OC(=O)[C@H](CC(C)C)NC(=O)[C@H](CCCCN)NC(=S)Nc2ccc(OC3O[C@@H](C)[C@@H](O)[C@@H](OC)[C@@H]3O)cc2)C(=O)OCc2c1cc1n(c2=O)Cc2cc3ccccc3nc2-1 (stereo partly drawn) [Example 7, 20(S)-20-O-{N^α-O-(3-O-Methyl-β-L-fucopyranosyl)-4-hydroxy-phenylamino-thiocarbonyl]-L-lysyl-L-leucyl}-camptothecin, hydrochloride]	30	80	20	
CC[C@@]1(OC(=O)[C@@H](CC(C)C)NC(=O)[C@H](CCCN)NC(=S)Nc2ccc(OC3O[C@@H](C)[C@@H](O)[C@@H](OC)[C@@H]3O)cc2)C(=O)OCc2c1cc1n(c2=O)Cc2cc3ccccc3nc2-1 (stereo partly drawn) [Example 4, 20(S)-20-O-{N^α-[O-(3-O-Methyl-β-L-fucopyranosyl)-4-hydroxy-phenylamino-thiocarbonyl]-L-ornithyl-D-leucyl}-camptothecin, hydrochloride]	20	100	500	
CC[C@@]1(OC(=O)[C@@H](NC(=O)[C@H](CCCCN)NC(=S)Nc2ccc(OC3O[C@@H](C)[C@@H](O)[C@@H](OC)[C@@H]3O)cc2)C(C)C)C(=O)OCc2c1cc1n(c2=O)Cc2cc3ccccc3nc2-1 (stereo partly drawn) [Example 8, 20(S)-20-O-{N^α-[-(3-O-Methyl-β-L-fucopyranosyl)-4-hydroxy-phenylamino-thiocarbonyl]-L-lysyl-L-valyl}-camptothecin, hydrochloride]	100	200	800	
CC[C@@]1(OC(=O)[C@@H](NC(=O)[C@H](Cc2cnc[nH]2)NC(=S)Nc2ccc(O[C@H]3O[C@@H](C)[C@@H](O)[C@@H](OC)[C@@H]3O)cc2)C(C)C)C(=O)OCc2c1cc1n(c2=O)Cc2cc3ccccc3nc2-1.Cl [Example 9, 20(S)-20-O-{N^α-[O-(3-O-Methyl-β-L-fucopyranosyl)-4-hydroxy-phenylamino-thiocarbonyl]-L-histidyl-L-valyl}-camptothecin, hydrochloride]				IC50 (HT 29; [3]): 70 nM; IC50 (SW 480; [4]): 200 nM; IC50 (B16F10; [5]): 400 nM; Inhibition of the CSF-induced proliferation of mouse bone marrow stem cells IC50 [1]: 15 ng/mL
CC[C@@]1(OC(=O)[C@@H](CC(C)C)NC(=O)[C@H](CCCNC(=N)N)NC(=S)Nc2ccc(OC3O[C@@H](C)[C@@H](O)[C@@H](OC)[C@@H]3O)cc2)C(=O)OCc2c1cc1n(c2=O)Cc2cc3ccccc3nc2-1 (stereo partly drawn) [Example 5, 20(S)-20-O-{N^α-[O-(3-O-Methyl-β-L-fucopyranosyl)-4-hydroxy-phenylamino-thiocarbonyl]-L-arginyl-D-leucyl}-camptothecin]	50	80	200	
CC[C@@]1(OC(=O)[C@H](CC(C)C)NC(=O)[C@H](CCCNC(=N)N)NC(=S)Nc2ccc(OC3O[C@@H](C)[C@@H](O)[C@@H](OC)[C@@H]3O)cc2)C(=O)OCc2c1cc1n(c2=O)Cc2cc3ccccc3nc2-1 (stereo partly drawn) [Example 10, 20(S)-20-O-{N^α-[O-(3-O-Methyl-β-L-fucopyranosyl)-4-hydrdxy-phenylamino-thiocarbonyl]-L-arginyl-L-leucyl}-camptothecin]	50	100	300	
CCC1(OC(=O)C(NC(=O)[C@H](Cc2c[nH]cn2)NC(=S)Nc2ccc(OC3OC(C)C(O)C(OC)C3O)cc2)C(C)C)C(=O)OCc2c1cc1n(c2=O)Cc2cc3ccccc3nc2-1.Cl (stereo partly drawn) [Example 2, 20(S)-20-O-{N-[O-(3-O-Methyl-β-L-fucopyranosyl)-4-hydroxy-phenylamino-thiocarbonyl]-L-histidyl-L/D-valyl}-camptothecin, hydrochloride]	40	100	300	opt. T/C [2, 6]: 3.3%; Survival time ([2]; 16 mg/kg/day i.v.): >28 days; Relative body weight on day 7 [% of day 0] ([2]; 16 mg/kg/day i.v.): 103 % of day 0; opt. T/C ([2]; 32 mg/kg/day i.v., LXFL 529, optimum on day 21): 0%; Survival time ([2]; 32 mg/kg/day i.v., hydrochloride): >28 days (3×) and 20 days and 1 days; Relative body weight on day 7 [% of day 0] ([2]; 32 mg/kg/day i.v.): 98 % of day 0; therapeutic efficacy (tumour remission) [2]: complete to marked tumour remission
CC[C@@]1(OC(=O)C(CC(C)C)NC(=O)[C@H](CCCCN)NC(=S)Nc2ccc(OC3O[C@@H](C)[C@@H](O)[C@@H](OC)[C@@H]3O)cc2)C(=O)OCc2c1cc1n(c2=O)Cc2cc3ccccc3nc2-1 (stereo partly drawn) [Example 1, 20(S)-20-O-{N^α-[O-(3-O-Methyl-β-L-fucopyranosyl)-4-hydroxy-phenylamino-thiocarbonyl]-L-lysyl-L/D-leucyl}-camptothecin, hydrochloride]	40	70	200	opt. T/C ([2]; 8 mg/kg/day i.v., LXFL 529, optimum on day 14): 0%; Survival time ([2]; 8 mg/kg/day i.v., hydrochloride): 0 days and >28 days (4×); Relative body weight on day 7 [% of day 0] ([2]; 8 mg/kg/day i.v.): 95 % of day 0; opt. T/C [2, 6]: 0%; Survival time ([2]; 16 mg/kg/day i.v.): >28 days; Relative body weight on day 7 [% of day 0] ([2]; 16 mg/kg/day i.v.): 95 % of day 0; tumour remission (FIG. 1) ([2]; dose range from 16 to 8 mg/kg, therapy schedule day 1-3 i.v., further experiment): long-lasting complete remission; therapeutic efficacy (tumour remission) [2]: complete to marked tumour remission
